Columns and labels:
[1] = molecular target: T1, recombinant human FLAP protein (Homo sapiens, UniProt P20292); assay: FLAP binding assay (Scintillation Proximity Assay, displacement of [125I]L-691,831); settings: read-out: FLAP SPA IC50
T1 construct: made in house; host or cells: Sf9 insect cells (100,000xg membrane fraction used)
T1 sequence (P20292 1-161): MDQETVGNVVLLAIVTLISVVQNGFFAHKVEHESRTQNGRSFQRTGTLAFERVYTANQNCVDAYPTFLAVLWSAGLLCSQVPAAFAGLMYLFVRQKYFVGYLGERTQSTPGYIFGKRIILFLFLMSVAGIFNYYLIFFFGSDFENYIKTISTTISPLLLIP
Outline: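 Scintillation proximity displacement of [125I]L-691,831 (0.08 nM) from membranes of sf9 cells expressing recombinant human FLAP (5 μg/well) on WGA SPA beads, pH 7.5 Tris buffer. Plates shaken 2 h before counting. Non-specific binding defined with 10 μM unlabelled L-691,831.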

[2] = tested on: synthesis of LTB4 in human whole blood; assay: human whole blood LTB4 production inhibition assay; type: cell-based; settings: calcimycin stimulated, read-out: hWB LTB4 IC50
Outline: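 Heparinized human whole blood was preincubated with compound for 15 min at 37° C, then stimulated with calcimycin (20 μM final, in PBS pH 7.4) for a further 30 min at 37° C. Plasma LTB4 was quantified by antibody-based homogeneous time-resolved fluorescence.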

Row | SMILES | IC50 [1] [nM] | IC50 [2] [nM]
1 | CC(C)[C@](C)(c1ccc(-c2ccc(N)nc2)nc1)c1noc(-c2cnn(CC(=O)N(C)C)c2)n1 [Example 132, 2-(4-{3-[(R)-1-(6′-Amino-[2,3′]bipyridinyl-5-yl)-1,2-dimethyl-propyl]-[1,2,4]oxadiazol-5-yl}-pyrazol-1-yl)-N,N-dimethyl-acetamide] | 12 | 130
2 | COCCN(C)c1cnc(-c2nc([C@@](C)(c3ccc(-c4cnc(N)nc4)nc3)C(C)C)no2)cn1 [Example 55, 5-{5-[(2R)-2-(5-{5-[(2-methoxyethyl)(methyl)amino]pyrazin-2-yl}-1,2,4-oxadiazol-3-yl)-3-methylbutan-2-yl]pyridin-2-yl}pyrimidin-2-amine] | 2.5 | 46
3 | COCCn1cc(-c2nc([C@](C)(c3ccc(-c4ccc(N)nc4)nc3)C3CC3)no2)cn1 [Example 108, 5-((S)-1-Cyclopropyl-1-{5-[1-(2-methoxy-ethyl)-1H-pyrazol-4-yl]-[1,2,4]oxadiazol-3-yl}-ethyl)-[2,3′]bipyridinyl-6′-ylamine] | 360 | 2300
4 | CC(C)C(C)(c1ccc(-c2cnc(N)nc2)nc1)c1noc(-c2ccccc2)n1 (stereo not drawn) [Example 71, 5-{5-[3-methyl-2-(5-phenyl-1,2,4-oxadiazol-3-yl)butan-2-yl]pyridin-2-yl}pyrimidin-2-amine] | 8.1 | 840
5 | C[C@](c1ccc(-c2cnc(N)nc2)nc1)(c1noc(-c2cnn(C3COC3)c2)n1)C1CC1 [Example 79, 5-{5-[(1S)-1-cyclopropyl-1-{5-[1-(oxetan-3-yl)-1H-pyrazol-4-yl]-1,2,4-oxadiazol-3-yl}ethyl]pyridin-2-yl}pyrimidin-2-amine] | 140 | 650
6 | CC(C)[C@](C)(c1ccc(-c2cnc(N)nc2)nc1)c1noc(-c2cnn(CCF)c2)n1 [Example 48, 5-{5-[(2R)-2-{5-[1-(2-fluoroethyl)-1H-pyrazol-4-yl]-1,2,4-oxadiazol-3-yl}-3-methylbutan-2-yl]pyridin-2-yl}pyrimidin-2-amine] | 2.6 | 20
7 | COCCn1cc(-c2nc(C(C)(C)c3ccc(-c4cnc(N)nc4)nc3)no2)cn1 [Example 89, 5-[5-(2-{5-[1-(2-methoxyethyl)-1H-pyrazol-4-yl]-1,2,4-oxadiazol-3-yl}propan-2-yl)pyridin-2-yl]pyrimidin-2-amine] | 230 | 880
8 | CNC(=O)Cn1cc(-c2nc([C@](C)(c3ccc(-c4cnc(N)nc4)nc3)C(C)C)no2)cn1 [Example 54, 2-[4-(3-{(2S)-2-[6-(2-aminopyrimidin-5-yl)pyridin-3-yl]-3-methylbutan-2-yl}-1,2,4-oxadiazol-5-yl)-1H-pyrazol-1-yl]-N-methylacetamide] | 70.7 | 750

Continued, values first:

Row | IC50 [1] [nM] | IC50 [2] [nM] | SMILES
9 | 5.6 | 230 | CNC(=O)Cn1cc(-c2nc(C(C)(c3ccc(-c4cnc(N)nc4)nc3)C(C)C)no2)cn1 (stereo not drawn) [Example 80, 2-[4-(3-{2-[6-(2-aminopyrimidin-5-yl)pyridin-3-yl]-3-methylbutan-2-yl}-1,2,4-oxadiazol-5-yl)-1H-pyrazol-1-yl]-N-methylacetamide]
10 | 10.9 | 490 | CC(C)C(C)(c1ccc(-c2cnc(N)nc2)nc1)c1noc(-c2cnc(N3CCNCC3)cn2)n1 (stereo not drawn) [Example 13, 5-[5-(3-methyl-2-{5-[5-(piperazin-1-yl)pyrazin-2-yl]-1,2,4-oxadiazol-3-yl}butan-2-yl)pyridin-2-yl]pyrimidin-2-amine]
11 | 3.4 | 17 | CC(C)[C@](C)(c1ccc(-c2ccc(N)nc2)nc1)c1noc(-c2cnn(C)c2)n1 [Example 60, 5-{(2R)-3-methyl-2-[5-(1-methyl-1H-pyrazol-4-yl)-1,2,4-oxadiazol-3-yl]butan-2-yl}-2,3′-bipyridin-6′-amine]
12 | 4 | 12 | CC(C)[C@](C)(c1ccc(-c2cnc(N)cn2)nc1)c1noc(-c2cnn(C3COC3)c2)n1 [Example 113, 5-(5-{(R)-1,2-Dimethyl-1-[5-(1-oxetan-3-yl-1H-pyrazol-4-yl)-[1,2,4]oxadiazol-3-yl]-propyl}-pyridin-2-yl)-pyrazin-2-ylamine]
